Experimental data from paper PMC3409651 (Journal of agricultural and food chemistry, 2012).

How the values were obtained:
Sult = Sult activity measurements; format: in vitro ADME, mouse; settings: male, FVB, mouse, liver S9 fraction, pH 7.4
Sult and Ugt = assay: Sult-Ugt co-reaction system; format: in vitro ADME; settings: male, FVB, mouse, liver S9 fraction
Ugt = Ugt activity measurements; settings: male, FVB, mouse, liver S9 fraction, pH 7.4
[1] = tested on: Sult in FVB mouse liver S9 fraction; assay: Sult activity measurements; format: in vitro ADME
[2] = Chemical stability of the tested compounds in potassium phosphate buffer; format: physicochemical; settings: 50 mM potassium phosphate buffer (pH 7.4) at 37°C with 0.1% vitamin C
[3] = tested on: SULTs in human liver and duodenum S9 fractions; settings: cited from earlier work
[4] = tested on: Ugt in FVB mouse liver S9 fraction; settings: male, 10 µM, pH 7.4
[5] = 10 µM substrate, Sult single reaction, FVB mice liver S9 fraction, n=3

time stable in buffer (chemical stability) [2] [min] | Structure (SMILES) | sulfation rate [1, 5] | also measured
 | O=c1cc(-c2ccccc2)oc2cc(O)c(O)cc12 [6,7-diHF, 6,7-dihydroxyflavone] |  | half-life at 10 µM (Sult): 244 ± 36.8 min; half-life at 10 µM (Sult and Ugt): 21.2 ± 2.03 min; half-life at 10 µM (Ugt): 26.8 ± 1.32 min
30 to 90 | O=c1cc(-c2ccccc2)oc2ccc(O)cc12 [6-HF, 6-hydroxyflavone] | 0.0211 ± 0.0002 nmol per min per mg of protein | 
 | O=c1cc(-c2ccccc2)oc2cc(O)cc(O)c12 [5,7-diHF, 5,7-dihydroxyflavone] |  | formation rate of 7-O-sulfate ([1]; male, FVB, mouse, 5 µM, pH 7.4): 0.0387 ± 0.0025 nmol per min per mg of protein; glucuronidation rate, 5-O-G [4]: 0.00 ± 0.00 nmol per min per mg of protein; glucuronidation rate, 7-O-G [4]: 1.0763 ± 0.0399 nmol per min per mg of protein
 | O=c1cc(-c2ccccc2)oc2cccc(O)c12 [5-HF, 5-hydroxyflavone] |  | sulfation rate ([1]; male, FVB, mouse, 10 µM, pH 7.4): 0.0524 ± 0.0019 nmol per min per mg of protein
30 to 90 | O=c1cc(-c2ccc(O)cc2)oc2ccccc12 [4’-HF, 4’-hydroxyflavone] | 0.0793 ± 0.0031 nmol per min per mg of protein | 
30 to 90 | O=c1c(O)c(-c2ccc(O)cc2)oc2ccccc12 [3,4’-diHF, 3,4’-dihydroxyflavone] |  | 
30 to 90 | O=c1cc(-c2ccccc2O)oc2ccccc12 [2’-HF, 2’-hydroxyflavone] | 0.0719 ± 0.0030 nmol per min per mg of protein | 
30 to 90 | O=c1cc(-c2cccc(O)c2)oc2ccccc12 [3’-HF, 3’-hydroxyflavone] | 0.0312 ± 0.0095 nmol per min per mg of protein | 

Structure (SMILES) | time stable in buffer (chemical stability) [2] [min] | sulfation rate [1, 5] | also measured
O=c1c(O)c(-c2ccccc2)oc2ccccc12 [3-HF, 3-hydroxyflavone] | 30 to 90 | 0.00 ± 0.00 nmol per min per mg of protein | sulfation by FVB mice liver S9 fraction (in words) ([1]; 5, 10 and 40 µM substrate, Sult single reaction): not sulfated
O=c1cc(-c2ccccc2)oc2cc(O)ccc12 [7-HF, 7-hydroxyflavone] | 30 to 90 | 0.0998 ± 0.0061 nmol per min per mg of protein | sulfation by SULTs (in words) [3]: sulfated
